Results published in patent publication US20090131537A1, “Wound healing compositions” (priority 2007, published 2009).
“Also recorded” adds a separate entry of the source. Where two headings read alike, the source gives them in different places.

Legend:
[1] = system: HaCat keratinocytes; test: clonal growth assay of HaCat keratinocytes with growth factor/retinoid supplements; assay type: cell-based, human; settings: for keratinocyte clonal growth: FIG. 1
Procedure: In the following experiment, the effect of on keratinocyte growth of adding single or multiple additives to standard medium (Std) was examined in a clonal growth assay performed according to the methods described previously (Wille et al., 1984). Briefly, a sterile […] plastic disposable Petri dish is seed with 5,000 high cloning HaCat cells, and refed complete (E^+I^+) serum free HECK 109 medium at incubated at 37° C. for 24 to 48 hours. The cells are washed with ice-cold Standard HECK 109 medium and refed various combinations of growth factors and retinyl acetate (RetAC).
FIG. 1 presents a photograph showing the results of incubating the HaCat seeded clonal assay dishes various supplements. The cells were fixed with 50% ethanol and stained with 0.2% crystal violet stain. This imparts a blue color to the cells. The stained dishes were then photographed.
In a second series of experiments the HaCat keratinocyte clonal growth after one day (D1) was compared for the combination: insulin plus retinyl acetate (Ins+Rac, D1) and the combination: EGF plus insulin (EI, D1). […] In these studies, insulin was also a necessary growth factor when used in combination with retinyl acetate. This may reflect the often-observed phenomenon of “carry-over” of bound EGF on cell surface growth factor receptor.

[2] = system: HaCat keratinocytes; test: inhibition of retinoid-induced autocrine growth of HaCat keratinocytes by receptor tyrosine kinase inhibitor; assay type: cell-based, human; settings: standard medium + 5 ug/ml insulin + 3×10^−8 M retinyl acetate, d1, FIG. 5
Procedure: In this experiment a selective inhibitor of receptor tyrosine protein phosphokinase was added to a culture of HaCat keratinocytes immediately prior to replacing the growth factor replete medium with HECK 110 serum free medium containing the combination insulin and retinyl acetate to induce autocrine growth. FIG. 5 presents a photograph showing three culture dishes with the following growth conditions: A. Standard growth medium (Std, d1); B. Standard growth medium containing the combination: 5 ug/ml insulin plus 3×10^−8M retinyl acetate (Ins+RAc, d1) and C. standard medium containing the combination: 5 ug/ml insulin, 3×10^−8M retinyl acetate and 2 uM of receptor tyrosine protein kinase inhibitor (Ins+Rac+RTKI, d1).

[3] = system: HaCat keratinocytes; test: wound healing zone (WHZ) wound gap closure in confluent HaCat keratinocyte sheets; assay type: cell-based, human; settings: for healing of WHZ: 24 hours, with insulin
Procedure: Keratinocytes were grown in a serum free medium supplemented with 5 ng/ml EGF and 5 ug/ml insulin and 0.2% fetal bovine serum and reseeded at 1×10^5 cells per cm^2 in to 35 mm 2 circular disposable Petri dishes and incubated at 37° C. until the cells completely filled the dish. These confluent cultures were then washed with ice-cold basal MCDB serum free medium and refed a serum free medium of the present invention whose composition is as shown in Table 1. A 2.5 mm linear wound was made across the midline of the diameter of the confluent culture with a 2.5 mm diameter heat-sealed tip of a 9 inch sterile Pasteur pipette. […] Wound of this diameter were routinely and reproducibly made by this technique and allow study of the effect of any agent that might have an effect on wound healing by measuring the delay in time it takes to fill in the wound gap of the WHZ.
FIG. 6 is a photograph of 9 culture dishes fixed with 50% ethanol and stained with 0.2% crystal violet 24 hours after forming the WHZ and incubated in the serum free medium of this invention containing varying doses of retinyl acetate. The experiment was performed in duplicate dishes. There is only one dish labeled 3E-5 as its duplicate was contaminated with mold and was eliminated. Control dishes were refed serum free medium supplemented with insulin but no retinyl acetate. All of the other dishes were r3efed serum free medium with insulin and increasing amount of retinyl acetate. The mi9d line WHZ was filled by epidermal keratinocyte migration and cell growth in all of the dishes except for cultures that had retinyl acetate at concentrations greater than 3×10^−6 M.
FIG. 7 show photomicrographs comparing wound closure in the WHZ for cultures of HaCat keratinocytes fixed and stained with crystal violet stain and photographed with bright field illumination.

[4] = system: c-neu; test: indirect immunofluorescence c-neu staining of keratinocytes propagated with retinoic acid; assay type: cell-based, human; settings: 5×10^−8 M all-trans retinoic acid
Description: In order to determine whether retinoids like retinyl acetate induced autocrine secretion of an EGF-like protein growth factor that binds to an EGF-like cell surface receptor, we designed an experiment using the erbB antibody purchased from Oncogene Sciences (Manhasset, N.Y.) and performed indirect immunofluoresnce (IIF) cytochemistry on fixed normal human neonatal foreskin keratinocytes prepared according to previous studies (Wille et al., 1984). The technique of indirect immunofluorescene was performed according to the antibody manufacturers instructions for c-neu antibody. The neu oncogene was discovered after serial transformation of cells using rat neuroblastoma DNA. The isolated oncogene hybridizes with v-erbB and has 50% homology to the normal EGF receptor, a tyrosine kinase type enzyme protein. The proto-oncogene for neu is designated c-erb-2.
Normal human keratinocytes were propagated in a serum free medium composition containing 5×10.up.−8M all-trans retinoic acid, fixed and prepared for c-neu staining and detection by IIF as described in Experiment 1. […] We interpret this to mean that retinoid stimulation of autocrine growth proceeds through phosphorylation of an EGF-like receptor at points of cell-to-cell contact, which usually is only seen is post-mitotic suprabasal cells.

[5] = system: adult human keratinocytes; settings: cited from earlier work
[6] = system: normal human keratinocytes; settings: added to serum free growth factor supplemented medium; cited from earlier work

Compound: CC(=O)OC/C=C(C)/C=C/C=C(C)/C=C/C1=C(C)CCCC1(C)C (racemic) [retinyl acetate]
- keratinocyte clonal growth after one day (D1) compared with EGF plus insulin ([1]; 5 ug/ml insulin + 3×10^−8 M retinyl acetate, D1, FIG. 2): stimulated keratinocyte growth as well as the combination (EI)
- keratinocyte clonal growth ([1]; standard medium (Std) + 3×10^−8 M retinyl acetate alone): little if any keratinocyte growth
- keratinocyte clonal growth ([1]; standard medium + 5 ug/ml insulin and 3×10^−8 M retinyl acetate): sufficient to support the growth; also recorded: the best result was stimulation of keratinocyte growth
- HaCat growth, dish B versus dishes A and C [2]: significant growth
- healing of WHZ ([3]; 3×10^−5 M retinyl acetate): incomplete healing; also recorded: no healing; also recorded: complete failure to fill in the WHZ gap
- healing of WHZ ([3]; 3×10^−6 M retinyl acetate): incomplete healing
- healing in the WHZ ([3]; 3×10^−7 M retinyl acetate): ~100%
- healing of WHZ ([3]; 3×10^−7 M retinyl acetate): complete wound healing
- healing of WHZ ([3]; 3×10^−8 M retinyl acetate): complete healing

Compound: insulin: protein growth factor insulin, supplement of serum free medium
- keratinocyte clonal growth ([1]; standard medium + insulin 5 ug/ml only (Std+Ins)): less effective; also recorded: stimulated to grow

Compound: CC1=C(/C=C/C(C)=C/C=C/C(C)=C/C(=O)O)C(C)(C)CCC1 [all-trans retinoic acid]
- c-neu staining pattern ([4]; no alkaline phosphatase pre-treatment, FIG. 4A): virtually all of the positive staining was strictly localized to focal adherence areas
- c-neu phosphorylation ([4]; with alkaline phosphatase pretreatment, FIG. 4B): induced a labile phosphorylation of c-neu only at the focal adherence sites
- effect on keratinocyte growth ([5]; concentrations lower than the optimal 0.5 ng/ml): ineffective
- effect on keratinocyte growth ([5]; growth factor deficient medium, growth arrested cells, 0.1-2.5 ng/ml): stimulated growth
- optimal concentration required to produce the growth stimulation ([5]; growth factor deficient medium): 0.5 ng/mL
- effect on keratinocyte proliferation ([5]; growth factor-supplemented medium, 0.1-2.5 ng/ml): inhibited proliferation
- rate of keratinocyte proliferation relative to maximal rate in growth factor supplemented medium ([5]; retinoid-stimulated cultures, growth factor deficient medium): approximately 35%
- effect on clonal growth [6]: inhibits the clonal growth
